According to patent US6605308B2, “Pathogen management system” (Tomoco2 Equipment Company, priority 2001, dated 2003):
Like-named read-outs stand apart in the source and are kept apart here.

Experiments:
Listeria monocytogenes = settings: 8% TSP, 10 minutes, room temperature, colony grown on a surface with biofilm; cited from earlier work
Salmonella = Salmonella in chiller water, plant test at Springdale, Ark.
E-Coli [1] = experiment: E-Coli on carcass after IOBW, Natchitoches, La.; settings: standard nozzles, 13 seconds of wash time
Method: More tests are being conducted at a facility in Natchitoches, La. The project began by adding hypochlorous acid to the IOBW on-line. Tests were performed on the carcass before and after the IOBW. APC, Coliform and E-Coli test were run on the carcass. Average APC of the carcass entering the IOBW was 90,559 cfu/ml, Coliform of 2,103 cfu/ml and E-Coli of 1,429 cfu/ml. After adding hypochlorous acid to the existing IOBW, using standard nozzles, a major reduction in the numbers was found. The average APC was 12,792, Coliform 664 cfu/ml and E. coli 383 cfu/ml. This was only with 13 seconds of wash time.

E-Coli [2] = experiment: E-Coli testing at chiller system, Natchitoches, La.
Coliform = Coliform on carcass after IOBW, Natchitoches, La.; settings: standard nozzles, 13 seconds of wash time
[3] = cited from earlier work
microorganisms = settings: versus OCl-; cited from earlier work
E-Coli [4] = experiment: E-Coli testing at immersion chiller, plant test at Dallas, Tex.
pathogens = experiment: Initial one-control-point testing at the immersion chillers, chiller water samples
From the text: In a preferred embodiment, a hypochlorous acid stream is used in more than one discrete location along a poultry processing line, although preliminary investigations for pathogens began as a one-control point approach in the process at the immersion chillers.
Samples of chiller water determined that it was sterilized with hypochlorous acid. It appeared that the disinfecting capabilities were maximized at the chiller.

APC = APC on carcass after IOBW, Natchitoches, La.; settings: standard nozzles, 13 seconds of wash time
[5] = December, 121 samples so far, chiller plus pick/kill room system
[6] = July, 254 samples, system on chiller
[7] = November, 251 samples, chiller plus pick/kill room system

SMILES: O=P([O-])([O-])[O-].[Na+].[Na+].[Na+] [TSP, Trisodium phosphate]
- reduction of bacterial numbers (Listeria monocytogenes): 1 log10

SMILES: [Ca+2].[O-]Cl.[O-]Cl [calcium hypochlorite solution, calcium hypochlorite]
- reduction in Salmonella (Salmonella): 40%
- samples returned with a positive result of Salmonella (Salmonella; of 83 samples, four weeks, injected into chiller recirculation lines without pH control): 16 samples

SMILES: OCl [hypochlorous acid]
- average E. coli (E-Coli [1]): 383 cfu/ml
- samples over 10 cfu/ml (E-Coli [2]; [5]): 28%
- samples over 100 cfu/ml (number) (E-Coli [2]; [5]): two
- samples over 10 cfu/ml (E-Coli [2]; [6]): 38%
- samples over 100 cfu/ml (E-Coli [2]; [6]): 5%
- samples over 10 cfu/ml (E-Coli [2]; [7]): 20%
- samples over 100 cfu/ml (number) (E-Coli [2]; [7]): one
- average Coliform (Coliform): 664 cfu/ml
- Percent HOCl ([3]; pH 5.0, 0 °C): 99.85%
- Percent HOCl ([3]; pH 5.0, 5 °C): 99.83%
- Percent HOCl ([3]; pH 5.0, 10 °C): 99.80%
- Percent HOCl ([3]; pH 5.0, 15 °C): 99.77%
- Percent HOCl ([3]; pH 5.0, 20 °C): 99.74%
- Percent HOCl ([3]; pH 5.0, 25 °C): 99.71%
- Percent HOCl ([3]; pH 5.0, 30 °C): 99.68%
- Percent HOCl ([3]; pH 5.5, 0 °C): 99.53%
- Percent HOCl ([3]; pH 5.5, 5 °C): 99.75%
- Percent HOCl ([3]; pH 5.5, 10 °C): 99.36%
- Percent HOCl ([3]; pH 5.5, 15 °C): 99.27%
- Percent HOCl ([3]; pH 5.5, 20 °C): 99.18%
- Percent HOCl ([3]; pH 5.5, 25 °C): 99.09%
- Percent HOCl ([3]; pH 5.5, 30 °C): 99.01%
- Percent HOCl ([3]; pH 6.0, 0 °C): 98.53%
- Percent HOCl ([3]; pH 6.0, 5 °C): 98.28%
- Percent HOCl ([3]; pH 6.0, 10 °C): 98.01%
- Percent HOCl ([3]; pH 6.0, 15 °C): 97.73%
- Percent HOCl ([3]; pH 6.0, 20 °C): 97.45%
- Percent HOCl ([3]; pH 6.0, 25 °C): 97.18%
- Percent HOCl ([3]; pH 6.0, 30 °C): 96.92%
- Percent HOCl ([3]; pH 7.0, 0 °C): 87.05%
- Percent HOCl ([3]; pH 7.0, 5 °C): 85.08%
- Percent HOCl ([3]; pH 7.0, 10 °C): 83.11%
- Percent HOCl ([3]; pH 7.0, 15 °C): 81.17%
- Percent HOCl ([3]; pH 7.0, 20 °C): 79.23%
- Percent HOCl ([3]; pH 7.0, 25 °C): 77.53%
- Percent HOCl ([3]; pH 7.0, 30 °C): 75.90%
- Percent HOCl ([3]; pH 8.0, 0 °C): 40.19%
- Percent HOCl ([3]; pH 8.0, 5 °C): 36.32%
- Percent HOCl ([3]; pH 8.0, 10 °C): 32.98%
- Percent HOCl ([3]; pH 8.0, 15 °C): 30.12%
- Percent HOCl ([3]; pH 8.0, 20 °C): 27.62%
- Percent HOCl ([3]; pH 8.0, 25 °C): 25.65%
- Percent HOCl ([3]; pH 8.0, 30 °C): 23.95%
- Percent HOCl ([3]; pH 9.0, 0 °C): 6.30%
- Percent HOCl ([3]; pH 9.0, 5 °C): 5.40%
- Percent HOCl ([3]; pH 9.0, 10 °C): 4.69%
- Percent HOCl ([3]; pH 9.0, 15 °C): 4.13%
- Percent HOCl ([3]; pH 9.0, 20 °C): 3.68%
- Percent HOCl ([3]; pH 9.0, 25 °C): 3.34%
- Percent HOCl ([3]; pH 9.0, 30 °C): 3.05%
- Percent HOCl ([3]; pH 10.0, 0 °C): 0.67%
- Percent HOCl ([3]; pH 10.0, 5 °C): 0.57%
- Percent HOCl ([3]; pH 10.0, 10 °C): 0.49%
- Percent HOCl ([3]; pH 10.0, 15 °C): 0.43%
- Percent HOCl ([3]; pH 10.0, 20 °C): 0.38%
- Percent HOCl ([3]; pH 10.0, 25 °C): 0.34%
- Percent HOCl ([3]; pH 10.0, 30 °C): 0.31%
- Percent HOCl ([3]; pH 11.0, 0 °C): 0.067%
- Percent HOCl ([3]; pH 11.0, 5 °C): 0.057%
- Percent HOCl ([3]; pH 11.0, 10 °C): 0.049%
- Percent HOCl ([3]; pH 11.0, 15 °C): 0.043%
- Percent HOCl ([3]; pH 11.0, 20 °C): 0.038%
- Percent HOCl ([3]; pH 11.0, 25 °C): 0.034%
- Percent HOCl ([3]; pH 11.0, 30 °C): 0.031%
- effectiveness for killing microorganisms relative to OCl- (microorganisms): about 80 times
- samples returned positive (Salmonella) (Salmonella; of 41 samples over three weeks, 98% hypochlorous acid solution injected into chiller recirculation lines): 2 samples
- E-Coli detection rate (E-Coli [4]; April): 14%
- samples below 100 cfu/ml (E-Coli [4]; April): 99%
- samples with E-Coli detected (E-Coli [4]; April, of 264 samples): 37 samples
- E-Coli detection rate (E-Coli [4]; March): 28%
- samples below 100 cfu/ml (E-Coli [4]; March): 83%
- samples with E-Coli detected (E-Coli [4]; March, of 264 samples): 76 samples
- E-Coli detection rate (E-Coli [4]; May): 8%
- samples below 100 cfu/ml (E-Coli [4]; May): 100%
- samples with E-Coli detected (E-Coli [4]; May, of 276 samples): 23 samples
- state of chiller water samples (pathogens): sterilized
- average APC (APC): 12,792 cfu/ml
